Measurements from publication PMC5218480 (PLoS ONE, 2017).

Tested on: MV-4-11 cells
Test: Gene expression microarray analysis (Affymetrix PrimeView) and GSEA
Format: cell-based, human
Set-up: RFU PODN (11730768_x_at) / Fold change /veh PODN (11730768_x_at) / RFU LINC00158 (11744669_a_at) / Fold change /veh LINC00158 (11744669_a_at) / RFU DUSP10 (11751237_a_at) / Fold change /veh DUSP10 (11751237_a_at) / RFU ID3 (11757404_x_at) / Fold change /veh ID3 (11757404_x_at) / RFU PLEKHG5 (11737974_s_at) / Fold change /veh PLEKHG5 (11737974_s_at) / RFU LRRC4B (11730491_at) / Fold change /veh LRRC4B (11730491_at) / RFU GIMAP4 (11747438_a_at) / Fold change /veh GIMAP4 (11747438_a_at) / RFU KRT8 (11758183_x_at) / Fold change /veh KRT8 (11758183_x_at) / RFU CNN1 (11734310_a_at) / Fold change /veh CNN1 (11734310_a_at) / RFU VPS37D (11726825_at) / Fold change /veh VPS37D (11726825_at) / RFU C10orf10 (11716522_x_at) / Fold change /veh C10orf10 (11716522_x_at) / RFU KIR2DL2 /// KIR2DL4 /// KIR2DL5A /// KIR2DL5B /// KIR2DS1 /// KIR2DS2 /// KIR2DS3 /// KIR2DS4 /// KIR3DL3 /// KIR3DL3 /// KIR3DS1 (11738374_at) / Fold change /veh KIR2DL2 /// KIR2DL4 /// KIR2DL5A /// KIR2DL5B /// KIR2DS1 /// KIR2DS2 /// KIR2DS3 /// KIR2DS4 /// KIR3DL3 /// KIR3DL3 /// KIR3DS1 (11738374_at) / RFU C1QL1 (11718748_at) / Fold change /veh C1QL1 (11718748_at) / RFU TMPRSS4 (11747572_a_at) / Fold change /veh TMPRSS4 (11747572_a_at) / RFU HAMP (11756126_x_at) / Fold change /veh HAMP (11756126_x_at) / RFU RNFT2 (11725882_a_at) / Fold change /veh RNFT2 (11725882_a_at) / RFU NR4A2 (11747474_a_at) / Fold change /veh NR4A2 (11747474_a_at) / RFU ABCC12 (11746883_a_at) / Fold change /veh ABCC12 (11746883_a_at) / RFU TMEM136 (11760407_x_at) / Fold change /veh TMEM136 (11760407_x_at) / RFU CLDN22 /// WWC2 (11732394_at) / Fold change /veh CLDN22 /// WWC2 (11732394_at) / RFU HLA-DPB1 (11760878_x_at) / Fold change /veh HLA-DPB1 (11760878_x_at) / RFU SPINT1 (11716480_a_at) / Fold change /veh SPINT1 (11716480_a_at) / RFU GAP43 (11754022_s_at) / Fold change /veh GAP43 (11754022_s_at) / RFU A4GNT (11735810_at) / Fold change /veh A4GNT (11735810_at) / RFU PRB3 (11715151_x_at) / Fold change /veh PRB3 (11715151_x_at) / RFU TUBB4B (11761932_at) / Fold change /veh TUBB4B (11761932_at) / RFU CAPN14 (11732068_a_at) / Fold change /veh CAPN14 (11732068_a_at) / RFU TMCC2 (11721928_a_at) / Fold change /veh TMCC2 (11721928_a_at) / RFU IRGQ (11745062_a_at) / Fold change /veh IRGQ (11745062_a_at) / RFU FAM174B (11720279_a_at) / Fold change /veh FAM174B (11720279_a_at) / RFU TMPRSS4 (11748680_a_at) / Fold change /veh TMPRSS4 (11748680_a_at) / RFU FAM212B (11763350_a_at) / Fold change /veh FAM212B (11763350_a_at) / RFU PLEKHG5 (11743358_a_at) / Fold change /veh PLEKHG5 (11743358_a_at) / RFU ZSCAN30 (11745921_a_at) / Fold change /veh ZSCAN30 (11745921_a_at) / RFU CMKLR1 (11741424_a_at) / Fold change /veh CMKLR1 (11741424_a_at) / RFU LOC101060620 /// MAPK8IP1 (11723275_at) / Fold change /veh LOC101060620 /// MAPK8IP1 (11723275_at) / RFU SPTSSB (11747773_x_at) / Fold change /veh SPTSSB (11747773_x_at) / RFU PRSS12 (11739890_at) / Fold change /veh PRSS12 (11739890_at) / RFU BIN1 (11741810_x_at) / Fold change /veh BIN1 (11741810_x_at) / RFU WNT11 (11732464_a_at) / Fold change /veh WNT11 (11732464_a_at) / RFU C10orf10 (11716521_a_at) / Fold change /veh C10orf10 (11716521_a_at) / RFU C5orf56 (11738089_at) / Fold change /veh C5orf56 (11738089_at) / RFU CYB561 (11721691_x_at) / Fold change /veh CYB561 (11721691_x_at) / RFU ANKRD19P (11752326_a_at) / Fold change /veh ANKRD19P (11752326_a_at) / RFU OR2T12 /// OR2T33 /// OR2T8 (11738714_s_at) / Fold change /veh OR2T12 /// OR2T33 /// OR2T8 (11738714_s_at) / RFU VCAN (11748164_a_at) / Fold change /veh VCAN (11748164_a_at) / RFU JSRP1 (11732532_at) / Fold change /veh JSRP1 (11732532_at) / RFU KRTAP10-11 (11738290_x_at) / Fold change /veh KRTAP10-11 (11738290_x_at) / RFU MYO3A (11730013_a_at) / Fold change /veh MYO3A (11730013_a_at) / RFU EBF3 (11725865_a_at) / Fold change /veh EBF3 (11725865_a_at) / RFU CAMK2N1 (11719241_x_at) / Fold change /veh CAMK2N1 (11719241_x_at) / RFU C5orf56 (11738088_a_at) / Fold change /veh C5orf56 (11738088_a_at) / RFU OLFML3 (11715873_a_at) / Fold change /veh OLFML3 (11715873_a_at) / RFU LOC100653217 /// NTM (11731650_a_at) / Fold change /veh LOC100653217 /// NTM (11731650_a_at) / RFU MAPK11 (11762145_a_at) / Fold change /veh MAPK11 (11762145_a_at) / RFU FIZ1 (11724087_x_at) / Fold change /veh FIZ1 (11724087_x_at) / RFU OASL (11726364_x_at) / Fold change /veh OASL (11726364_x_at) / RFU SOX15 (11748057_x_at) / Fold change /veh SOX15 (11748057_x_at) / RFU CD79A (11719716_a_at) / Fold change /veh CD79A (11719716_a_at) / RFU HIST1H1D (11736915_at) / Fold change /veh HIST1H1D (11736915_at) / RFU CASKIN2 (11723855_a_at) / Fold change /veh CASKIN2 (11723855_a_at) / RFU LOC730098 (11760151_x_at) / Fold change /veh LOC730098 (11760151_x_at) / RFU OR4N2 (11742367_at) / Fold change /veh OR4N2 (11742367_at) / RFU PRRT2 (11749266_a_at) / Fold change /veh PRRT2 (11749266_a_at) / RFU SNX32 (11753110_a_at) / Fold change /veh SNX32 (11753110_a_at) / RFU CDHR5 (11726645_a_at) / Fold change /veh CDHR5 (11726645_a_at) / RFU RCAN1 (11760418_a_at) / Fold change /veh RCAN1 (11760418_a_at) / RFU FAM167A (11723789_a_at) / Fold change /veh FAM167A (11723789_a_at) / RFU FAM26E (11764081_at) / Fold change /veh FAM26E (11764081_at) / RFU ISYNA1 (11749810_s_at) / Fold change /veh ISYNA1 (11749810_s_at) / RFU ACY1 (11761880_at) / Fold change /veh ACY1 (11761880_at) / RFU 11764098_at / Fold change /veh 11764098_at / RFU SAMD14 (11745864_x_at) / Fold change /veh SAMD14 (11745864_x_at) / RFU NPB (11741838_a_at) / Fold change /veh NPB (11741838_a_at) / RFU TMPRSS6 (11731388_a_at) / Fold change /veh TMPRSS6 (11731388_a_at) / RFU KRTAP10-2 (11738614_at) / Fold change /veh KRTAP10-2 (11738614_at) / RFU ARHGAP8 /// PRR5-ARHGAP8 (11727945_x_at) / Fold change /veh ARHGAP8 /// PRR5-ARHGAP8 (11727945_x_at) / RFU KRTAP5-7 /// NADSYN1 (11734609_at) / Fold change /veh KRTAP5-7 /// NADSYN1 (11734609_at) / RFU RASL12 (11751679_a_at) / Fold change /veh RASL12 (11751679_a_at) / RFU CDKN2B (11736163_a_at) / Fold change /veh CDKN2B (11736163_a_at) / RFU PRF1 (11729649_at) / Fold change /veh PRF1 (11729649_at) / RFU, ZNF638 /// ZNF638-IT1 / Fold change vs veh, ZNF638 /// ZNF638-IT1 / RFU, PANK3 / Fold change vs veh, PANK3 / RFU, SH3YL1 / Fold change vs veh, SH3YL1 / RFU, ZEB2 / Fold change vs veh, ZEB2 / RFU, NRIP1 / Fold change vs veh, NRIP1 / RFU, PTTG1IP / Fold change vs veh, PTTG1IP / RFU, CAPN2 / Fold change vs veh, CAPN2 / RFU, MED14 / Fold change vs veh, MED14 / RFU, SNORA58 / Fold change vs veh, SNORA58 / RFU, C1orf63 / Fold change vs veh, C1orf63 / RFU, LRRFIP1 / Fold change vs veh, LRRFIP1 / RFU, NDUFAF7 / Fold change vs veh, NDUFAF7 / RFU, SLC12A2 / Fold change vs veh, SLC12A2 / RFU, IBTK / Fold change vs veh, IBTK / RFU, ESF1 / Fold change vs veh, ESF1 / Fold change vs veh, TMEM50B / RFU, TAOK1 / Fold change vs veh, TAOK1 / RFU, ACBD3 / Fold change vs veh, ACBD3 / RFU, TMA16 / Fold change vs veh, TMA16 / RFU, RWDD3 / Fold change vs veh, RWDD3 / RFU, BCAT1 / Fold change vs veh, BCAT1 / RFU, EDEM3 / Fold change vs veh, EDEM3 / RFU, TMEM33 / Fold change vs veh, TMEM33 / RFU, WDR75 / Fold change vs veh, WDR75 / RFU, AHCTF1 / Fold change vs veh, AHCTF1 / RFU, TFRC / Fold change vs veh, TFRC / RFU, ZDHHC17 / Fold change vs veh, ZDHHC17 / RFU, NOM1 / Fold change vs veh, NOM1 / RFU, ARL8B / Fold change vs veh, ARL8B / RFU, ZBTB11 / Fold change vs veh, ZBTB11 / RFU, TAMM41 / Fold change vs veh, TAMM41 / RFU, KIAA1704 /// LOC100996395 / Fold change vs veh, KIAA1704 /// LOC100996395 / RFU, ING1 / Fold change vs veh, ING1 / RFU, TRMT61B / Fold change vs veh, TRMT61B / RFU, FUBP3 / Fold change vs veh, FUBP3 / RFU, TP53 / Fold change vs veh, TP53 / RFU, TNKS2 / Fold change vs veh, TNKS2 / RFU, ZFP14 / Fold change vs veh, ZFP14 / RFU, ACTR2 / Fold change vs veh, ACTR2 / RFU, PPP3R1 / Fold change vs veh, PPP3R1 / RFU, PIK3R1 / Fold change vs veh, PIK3R1 / RFU, HNRNPA1 / Fold change vs veh, HNRNPA1 / RFU, RNF170 / Fold change vs veh, RNF170 / RFU, ZNF28 / Fold change vs veh, ZNF28 / RFU, RNGTT / Fold change vs veh, RNGTT / RFU, OGT / Fold change vs veh, OGT / RFU, BRD1 / Fold change vs veh, BRD1 / RFU, MARS / Fold change vs veh, MARS / RFU, ZNF655 / Fold change vs veh, ZNF655 / RFU, FAHD1 / Fold change vs veh, FAHD1 / RFU, BDP1 / Fold change vs veh, BDP1 / RFU, LRRCC1 / Fold change vs veh, LRRCC1 / RFU, ARID1A / Fold change vs veh, ARID1A / RFU, ZNF146 / Fold change vs veh, ZNF146 / RFU, ZNF330 / Fold change vs veh, ZNF330 / RFU, GPN3 / Fold change vs veh, GPN3 / RFU, C9orf123 / Fold change vs veh, C9orf123 / RFU, N4BP2L2 / Fold change vs veh, N4BP2L2 / RFU, ARFIP1 / Fold change vs veh, ARFIP1 / RFU, FAM179B / Fold change vs veh, FAM179B / RFU, BCL10 / Fold change vs veh, BCL10 / RFU, UHRF1BP1L / Fold change vs veh, UHRF1BP1L / RFU, BET1 / Fold change vs veh, BET1 / RFU, CNOT2 / Fold change vs veh, CNOT2 / RFU, ZNF268 / Fold change vs veh, ZNF268 / Fold change vs veh, ZNF507 / RFU, DGCR2 / Fold change vs veh, DGCR2 / RFU, WDSUB1 / Fold change vs veh, WDSUB1 / Fold change vs veh, HSP90B1 /// MIR3652 / RFU, ADSS / Fold change vs veh, ADSS / RFU, GK / Fold change vs veh, GK / RFU, ZNF148 / Fold change vs veh, ZNF148 / RFU, TAF9 / Fold change vs veh, TAF9 / RFU, SLC1A5 / Fold change vs veh, SLC1A5 / RFU, SLMO2 / Fold change vs veh, SLMO2 / RFU, ABCC4 / Fold change vs veh, ABCC4 / RFU, LOC101060439 /// RAP1B / Fold change vs veh, LOC101060439 /// RAP1B / RFU, RFX7 / Fold change vs veh, RFX7 / RFU, GTPBP10 / Fold change vs veh, GTPBP10 / RFU, CNEP1R1 / Fold change vs veh, CNEP1R1 / RFU, BIVM-ERCC5 /// ERCC5 / Fold change vs veh, BIVM-ERCC5 /// ERCC5 / RFU, ILF3 / Fold change vs veh, ILF3 / RFU 11762660_at / Fold change /veh 11762660_at / RFU VCAN (11757783_s_at) / Fold change /veh VCAN (11757783_s_at) / RFU DDX43 (11728927_at) / Fold change /veh DDX43 (11728927_at) / RFU KRT8 (11758188_x_at) / Fold change /veh KRT8 (11758188_x_at) / RFU NKD1 (11759106_at) / Fold change /veh NKD1 (11759106_at) / RFU SRD5A1 (11742802_a_at) / Fold change /veh SRD5A1 (11742802_a_at) / RFU TPSAB1 /// TPSB2 (11721975_s_at) / Fold change /veh TPSAB1 /// TPSB2 (11721975_s_at) / RFU GSTM3 (11746129_a_at) / Fold change /veh GSTM3 (11746129_a_at) / RFU IL23R (11737362_x_at) / Fold change /veh IL23R (11737362_x_at) / RFU TMEM51 (11727254_a_at) / Fold change /veh TMEM51 (11727254_a_at) / RFU PIWIL2 (11732686_x_at) / Fold change /veh PIWIL2 (11732686_x_at) / RFU ORM1 (11744905_x_at) / Fold change /veh ORM1 (11744905_x_at) / RFU CCDC152 (11743942_at) / Fold change /veh CCDC152 (11743942_at) / RFU ECM1 (11717891_a_at) / Fold change /veh ECM1 (11717891_a_at) / RFU IL23R (11748794_a_at) / Fold change /veh IL23R (11748794_a_at) / RFU TNFAIP8L3 (11732012_x_at) / Fold change /veh TNFAIP8L3 (11732012_x_at) / RFU MBOAT4 (11741988_at) / Fold change /veh MBOAT4 (11741988_at) / RFU 11764193_at / Fold change /veh 11764193_at / RFU TMEM53 (11763286_at) / Fold change /veh TMEM53 (11763286_at) / RFU MAGEB2 (11727129_at) / Fold change /veh MAGEB2 (11727129_at) / RFU TMEM200A (11744735_a_at) / Fold change /veh TMEM200A (11744735_a_at) / RFU CCDC152 (11751479_a_at) / Fold change /veh CCDC152 (11751479_a_at) / RFU FAM211A (11726209_a_at) / Fold change /veh FAM211A (11726209_a_at) / RFU RGS16 (11746705_a_at) / Fold change /veh RGS16 (11746705_a_at) / RFU VCAN (11755009_s_at) / Fold change /veh VCAN (11755009_s_at) / RFU RHOB (11743442_s_at) / Fold change /veh RHOB (11743442_s_at) / RFU RGS16 (11720943_a_at) / Fold change /veh RGS16 (11720943_a_at) / RFU RGS16 (11720944_at) / Fold change /veh RGS16 (11720944_at) / RFU, VPS4B / Fold change vs veh, VPS4B / RFU, CREB1 / Fold change vs veh, CREB1 / RFU, DNAJC13 / Fold change vs veh, DNAJC13 / RFU, GNAQ / Fold change vs veh, GNAQ / RFU, CDK5R1 / Fold change vs veh, CDK5R1 / RFU, ZRANB3 / Fold change vs veh, ZRANB3 / RFU, CUL4A / Fold change vs veh, CUL4A / RFU, CCNY / Fold change vs veh, CCNY / RFU, UFL1 / Fold change vs veh, UFL1 / RFU, COG3 / Fold change vs veh, COG3 / RFU, DIAPH2 / Fold change vs veh, DIAPH2 / RFU, SKA2 / Fold change vs veh, SKA2 / RFU, AFF3 / Fold change vs veh, AFF3 / RFU, LMF1 / Fold change vs veh, LMF1 / RFU, IPO11 / Fold change vs veh, IPO11 / RFU, DFFB / Fold change vs veh, DFFB / RFU, FOXP1 / Fold change vs veh, FOXP1 / RFU, CARD8 / Fold change vs veh, CARD8 / RFU, STRN3 / Fold change vs veh, STRN3 / RFU, ADK / Fold change vs veh, ADK / RFU, RASSF2 / Fold change vs veh, RASSF2 / RFU, WIPF1 / Fold change vs veh, WIPF1 / RFU, LARP1B / Fold change vs veh, LARP1B / RFU, RASA1 / Fold change vs veh, RASA1 / RFU, RB1 / Fold change vs veh, RB1 / RFU, PPFIA1 / Fold change vs veh, PPFIA1 / RFU, MAT2A / Fold change vs veh, MAT2A / RFU, CCT5 / Fold change vs veh, CCT5 / RFU, WDR92 / Fold change vs veh, WDR92 / RFU, CUX1 / Fold change vs veh, CUX1 / RFU, TTC7A / Fold change vs veh, TTC7A / RFU, TMEM135 / Fold change vs veh, TMEM135 / RFU, DEPTOR / Fold change vs veh, DEPTOR / RFU, CPM / Fold change vs veh, CPM / RFU, DNAJB6 / Fold change vs veh, DNAJB6 / RFU, CACNA2D3 / Fold change vs veh, CACNA2D3 / RFU, DTX4 / Fold change vs veh, DTX4 / RFU, TFCP2 / Fold change vs veh, TFCP2 / RFU, GMCL1 /// GMCL1P1 / Fold change vs veh, GMCL1 /// GMCL1P1 / RFU, AEBP2 / Fold change vs veh, AEBP2 / RFU, SNHG1 /// SNORD22 /// SNORD25 /// SNORD26 /// SNORD27 /// SNORD28 /// SNORD29 /// SNORD31 / Fold change vs veh, SNHG1 /// SNORD22 /// SNORD25 /// SNORD26 /// SNORD27 /// SNORD28 /// SNORD29 /// SNORD31 / Fold change (Aza/veh), C12orf56 (ProbeSet 11735607_a_at) / Fold change (ACY-1035/veh), C12orf56 (ProbeSet 11735607_a_at) / Fold change (Aza/veh), FGFR1OP (ProbeSet 11751329_s_at) / Fold change (ACY-1035/veh), FGFR1OP (ProbeSet 11751329_s_at) / Fold change (Aza/veh), VPS36 (ProbeSet 11739960_a_at) / Fold change (ACY-1035/veh), VPS36 (ProbeSet 11739960_a_at) / RFU SYPL1 (11715823_x_at) / Fold change /veh SYPL1 (11715823_x_at) / RFU IGFBP7 (11715501_s_at) / Fold change /veh IGFBP7 (11715501_s_at) / RFU REEP3 (11722064_at) / Fold change /veh REEP3 (11722064_at) / RFU IGLL1 (11728026_x_at) / Fold change /veh IGLL1 (11728026_x_at): dose or concentration left out as unconfirmed
Details: ProbeSet 11741070_a_at; LIST B

Structure (SMILES): Nc1ccc(-c2cccs2)cc1NC(=O)c1ccc2c(c1)cc(C1CC1)n2CCN1CCOCC1 [ACY-1035]
- Fold change vs veh, ZNF146: 0.99
